Assay results published in ChEMBL document CHEMBL3751783, “Straightforward and effective synthesis of γ-aminobutyric acid transporter subtype 2-selective acyl-substituted azaspiro[4.5]decanes” (Bioorg Med Chem Lett, 2016).

What was measured:
Format in all cases: cell-based
[1] = biological target: Sodium- and chloride-dependent GABA transporter 1 (Mus musculus, UniProt P31648); assay: Inhibition of mouse GAT1 mediated [3]GABA uptake expressed in HEK293 cells after 3 mins by scintillation counting
GABA transporter 2 = biological target: T1, GABA transporter 2 (Mus musculus, UniProt P31651); assay: Inhibition of mouse BGT1 mediated [3]GABA uptake expressed in HEK293 cells after 3 mins by scintillation counting
T1 sequence (P31651 whole entry): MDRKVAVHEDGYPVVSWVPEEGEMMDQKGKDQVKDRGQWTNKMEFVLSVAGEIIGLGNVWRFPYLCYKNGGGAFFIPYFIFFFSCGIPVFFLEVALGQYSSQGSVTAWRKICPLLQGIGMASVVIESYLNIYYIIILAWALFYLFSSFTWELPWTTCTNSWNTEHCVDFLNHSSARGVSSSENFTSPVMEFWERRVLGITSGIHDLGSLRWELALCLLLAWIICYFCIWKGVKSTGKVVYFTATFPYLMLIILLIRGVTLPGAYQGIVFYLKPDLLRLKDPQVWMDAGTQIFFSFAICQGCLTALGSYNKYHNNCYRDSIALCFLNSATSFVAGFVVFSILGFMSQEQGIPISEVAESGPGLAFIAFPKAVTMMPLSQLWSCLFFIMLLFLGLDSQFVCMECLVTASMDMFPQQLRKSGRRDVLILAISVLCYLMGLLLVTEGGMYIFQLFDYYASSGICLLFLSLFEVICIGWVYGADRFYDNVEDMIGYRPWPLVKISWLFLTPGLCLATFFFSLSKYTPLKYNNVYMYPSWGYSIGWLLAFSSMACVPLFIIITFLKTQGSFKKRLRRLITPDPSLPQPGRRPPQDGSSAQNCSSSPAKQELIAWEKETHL

GABA transporter 3 = biological target: T2, GABA transporter 3 (Mus musculus, UniProt P31649); assay: Inhibition of mouse GAT2 mediated [3]GABA uptake expressed in HEK293 cells after 3 mins by scintillation counting
T2 sequence (P31649 whole entry): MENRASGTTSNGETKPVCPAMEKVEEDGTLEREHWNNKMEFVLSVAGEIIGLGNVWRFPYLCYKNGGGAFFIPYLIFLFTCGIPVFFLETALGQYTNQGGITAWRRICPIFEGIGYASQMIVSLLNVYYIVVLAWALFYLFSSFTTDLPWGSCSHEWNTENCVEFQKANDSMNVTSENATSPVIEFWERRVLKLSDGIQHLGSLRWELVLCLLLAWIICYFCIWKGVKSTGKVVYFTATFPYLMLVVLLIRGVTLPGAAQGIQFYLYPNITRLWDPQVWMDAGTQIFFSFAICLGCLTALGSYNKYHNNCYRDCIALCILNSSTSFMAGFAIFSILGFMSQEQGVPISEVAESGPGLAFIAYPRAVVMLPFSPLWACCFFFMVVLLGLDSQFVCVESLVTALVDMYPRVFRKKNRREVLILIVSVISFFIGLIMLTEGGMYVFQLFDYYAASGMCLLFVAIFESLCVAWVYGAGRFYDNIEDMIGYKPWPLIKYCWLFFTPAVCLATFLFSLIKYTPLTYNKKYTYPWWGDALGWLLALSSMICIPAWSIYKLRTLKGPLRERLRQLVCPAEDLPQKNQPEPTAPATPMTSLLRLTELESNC

| SMILES | IC50 [1] [µM] | IC50 (GABA transporter 2) [µM] | IC50 (GABA transporter 3) [µM] |
| --- | --- | --- | --- |
| O=C(CCN1CCOCC1)N1C(=O)CCC12CCCCC2 | > 1000 | > 1000 | > 1000 |
| O=C1CCC2(CCCCC2)N1 | > 5000 | > 5000 | > 5000 |
| C=CCN1C(=O)CCC12CCCC21OCCO1 (stereo not given) | > 1000 | > 1000 | > 1000 |
| C=CC(=O)N1C(=O)CCC12CCCCC2 | 371 | 103 | > 1000 |
| CCOC(=O)C1CCCN(CCC(=O)N2CCCC23CCCCC3)C1 (stereo not given) | > 5000 | > 5000 | 2330 |
| O=C(CCN1CCOCC1)N1CCCC12CCCCC2 | > 5000 | > 5000 | > 5000 |
| O=C(O)C1=CCCN(CCON=C(c2ccccc2)c2ccccc2)C1 | 0.18 | > 1000 | > 1000 |
| [N-]=[N+]=NCC(=O)N1C(=O)CCC12CCCCC2 | > 1000 | > 1000 | > 1000 |
| O=C(O)C1=CCCNC1 [GUVACINE] | 20.9 | > 1000 | 72.4 |
| O=C(CBr)N1CCCC12CCCCC2 | 233 | > 5000 | > 5000 |
| O=C1CCC2(CCCC23OCCO3)N1 (stereo not given) | > 1000 | > 1000 | > 1000 |
| CCOC(=O)C1CCCN(CCC(=O)N2C(=O)C=CC23CCCC32OCCO2)C1 (stereo not given) | > 1000 | > 1000 | > 1000 |
| O=C(CBr)N1C(=O)CCC12CCCCC2 | 371 | 103 | > 1000 |
| COC(=O)C1=CCCN(CCC(=O)N2CCCC23CCCCC3)C1 | 2050 | 2300 | 3230 |
| O=C(CCN1CCCC1)N1C(=O)CCC12CCCCC2 | > 1000 | > 1000 | > 1000 |
| C=CC(=O)N1CCCC12CCCCC2 | > 5000 | > 5000 | 3020 |
| CCN(CC)CCC(=O)N1CCCC12CCCCC2 | > 1000 | > 1000 | > 1000 |

| SMILES | IC50 [1] [µM] | IC50 (GABA transporter 2) [µM] | IC50 (GABA transporter 3) [µM] |
| --- | --- | --- | --- |
| COc1ccc(C(OCCN2CCC[C@H](C(=O)O)C2)(c2ccc(OC)cc2)c2ccc(OC)cc2)cc1 |  | > 1000 |  |
| O=C(CI)N1C(=O)CCC12CCCCC2 | > 1000 | > 1000 | > 1000 |
| O=C(CCN1CCNCC1)N1CCCC12CCCCC2 | > 1000 | > 1000 | > 1000 |
| O=C1CCC2(CCCCC2=O)N1 (stereo not given) | > 1000 | > 1000 | > 1000 |
| O=C1C=CC2(CCCC23OCCO3)N1C(=O)CCN1CCNCC1 (stereo not given) | > 1000 | > 1000 | > 1000 |
| CCOC(=O)C1CCCN(CCC(=O)N2C(=O)CCC23CCCCC3)C1 (stereo not given) | > 1000 | 164 | > 1000 |
| O=C1C=CC2(CCCC23OCCO3)N1C(=O)CCN1CCOCC1 (stereo not given) | > 1000 | > 1000 | > 1000 |
| O=C(CBr)N1C(=O)CCC12CCCCC2=O (stereo not given) | > 1000 | > 1000 | > 1000 |
| O=C(CCN1CCCCC1)N1C(=O)CCC12CCCCC2 | > 1000 | > 1000 | > 1000 |
| C=CC(=O)N1C(=O)CCC12CCCCC2=O (stereo not given) | > 1000 | > 1000 | > 1000 |
| C=CC(=O)N1C(=O)C=CC12CCCC21OCCO1 (stereo not given) | > 1000 | > 1000 | > 1000 |
| O=C(CCN1CCCC1)N1CCCC12CCCCC2 | > 5000 | > 5000 | > 5000 |
| C1CCC2(CC1)CCCN2 | > 5000 | > 5000 | > 5000 |
| CCN(CC)CCC(=O)N1C(=O)CCC12CCCCC2 | > 1000 | > 1000 | > 1000 |
| O=C(CCN1CCCCC1)N1CCCC12CCCCC2 | > 5000 | > 5000 | > 5000 |
| O=C(CCl)N1C(=O)CCC12CCCCC2 | > 1000 | > 1000 | > 1000 |
| O=C(CCN1CCNCC1)N1C(=O)CCC12CCCCC2 | > 1000 | > 1000 | > 1000 |
